From the supplement of paper PMC12420376

Key:
[1] = system: KURAMOCHI; experiment: drug sensitivity score (DSS2) on cancer cell count; higher = more sensitive; extreme values may be limits of the assay; conditions: 72 h
Outline: (§1)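 Ovarian cancer cells grown alone or 1:1 with lung or skin fibroblasts in direct co-culture were treated for 72 h on 384-well plates carrying 528 approved and investigational compounds at 5 concentrations. Fixed cells were stained for CK8/18 with Hoechst and imaged to count cancer cells. A drug sensitivity score was then derived in Breeze from logistic curve fits.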

[2] = system: OVCAR8; experiment: as above; conditions: 72 h
Outline: as §1

[3] = co-cultured fibroblast: BJHTERT
[4] = co-cultured fibroblast: none (monoculture)

Molecule `Cc1ccc(=O)n(-c2ccccc2)c1` [Pirfenidone] has a drug sensitivity score [1, 3] of 1.8 DSS, a drug sensitivity score ([1]; co-cultured fibroblast: WI38) of 0 DSS and a drug sensitivity score [1, 4] of 0 DSS. It also gave a drug sensitivity score [2, 3] of 0 DSS, a drug sensitivity score ([2]; co-cultured fibroblast: WI38) of 0.7 DSS and a drug sensitivity score [2, 4] of 0 DSS.
For `O=C(/C=C\n1cnc(-c2cc(C(F)(F)F)cc(C(F)(F)F)c2)n1)NNc1cnccn1` [Selinexor], the drug sensitivity score [1, 3] was 17.1 DSS, the drug sensitivity score ([1]; co-cultured fibroblast: WI38) was 21.8 DSS and the drug sensitivity score [1, 4] was 25.3 DSS. For the same molecule, the drug sensitivity score [2, 3] was 22.4 DSS, the drug sensitivity score ([2]; co-cultured fibroblast: WI38) was 24.3 DSS and the drug sensitivity score [2, 4] was 27.1 DSS.
Work on `C[C@@H](Oc1cc(-n2cnc3ccc(CN4CCN(C)CC4)cc32)sc1C(N)=O)c1ccccc1C(F)(F)F` yielded a drug sensitivity score [1, 3] of 28 DSS, a drug sensitivity score ([1]; co-cultured fibroblast: WI38) of 27.7 DSS and a drug sensitivity score [1, 4] of 25.3 DSS. For the same molecule, the drug sensitivity score [2, 3] was 42.4 DSS, the drug sensitivity score ([2]; co-cultured fibroblast: WI38) was 32.3 DSS and the drug sensitivity score [2, 4] was 31 DSS.
`CC(C)Cn1cnc2c(N)nc3ccccc3c21` [Imiquimod] was tested, and the drug sensitivity score [1, 3] was 0 DSS, the drug sensitivity score ([1]; co-cultured fibroblast: WI38) was 0.1 DSS and the drug sensitivity score [1, 4] was 13.4 DSS. The drug sensitivity score [2, 3] was 0.4 DSS, the drug sensitivity score ([2]; co-cultured fibroblast: WI38) was 0 DSS and the drug sensitivity score [2, 4] was 2.8 DSS.
`CCS(=O)(=O)N1CCN(c2ccc(Nc3ncc(C(N)=O)c(NC4CC4)n3)cc2)CC1` [Cerdulatinib] showed a drug sensitivity score [1, 3] of 0 DSS, a drug sensitivity score ([1]; co-cultured fibroblast: WI38) of 4.3 DSS and a drug sensitivity score [1, 4] of 1.1 DSS. For the same molecule, the drug sensitivity score [2, 3] was 0 DSS, the drug sensitivity score ([2]; co-cultured fibroblast: WI38) was 4.3 DSS and the drug sensitivity score [2, 4] was 1.1 DSS.
`O=c1[nH]cc(F)c(=O)[nH]1` [Fluorouracil] gave a drug sensitivity score [1, 3] of 2.3 DSS, a drug sensitivity score ([1]; co-cultured fibroblast: WI38) of 5.4 DSS and a drug sensitivity score [1, 4] of 5 DSS. The drug sensitivity score [2, 3] was 1.3 DSS, the drug sensitivity score ([2]; co-cultured fibroblast: WI38) was 1.4 DSS and the drug sensitivity score [2, 4] was 5.5 DSS.
`C[C@@H](Oc1ccc2[nH]nc(/C=C/c3cnn(CCO)c3)c2c1)c1c(Cl)cncc1Cl` showed a drug sensitivity score [1, 3] of 5.7 DSS, a drug sensitivity score ([1]; co-cultured fibroblast: WI38) of 2.2 DSS and a drug sensitivity score [1, 4] of 6.7 DSS. The drug sensitivity score [2, 3] was 8.2 DSS, the drug sensitivity score ([2]; co-cultured fibroblast: WI38) was 9.2 DSS and the drug sensitivity score [2, 4] was 8 DSS.
For `Cc1cc(Nc2cc(N3CCN(C)CC3)nc(Sc3ccc(NC(=O)C4CC4)cc3)n2)n[nH]1` [Tozasertib], the drug sensitivity score [1, 3] was 22 DSS, the drug sensitivity score ([1]; co-cultured fibroblast: WI38) was 19.4 DSS and the drug sensitivity score [1, 4] was 23.7 DSS. The drug sensitivity score [2, 3] was 20.1 DSS, the drug sensitivity score ([2]; co-cultured fibroblast: WI38) was 19.5 DSS and the drug sensitivity score [2, 4] was 20.9 DSS.
For `O=C(O)c1ccc(O)c2ncccc12` [IOX-1], the drug sensitivity score [1, 3] was 3.6 DSS, the drug sensitivity score ([1]; co-cultured fibroblast: WI38) was 5.9 DSS and the drug sensitivity score [1, 4] was 5.5 DSS. For the same molecule, the drug sensitivity score [2, 3] was 3.4 DSS, the drug sensitivity score ([2]; co-cultured fibroblast: WI38) was 0.7 DSS and the drug sensitivity score [2, 4] was 4.8 DSS.
Molecule `Cc1c(-c2ccc(N3CCc4cccc(C(=O)Nc5nc6ccccc6s5)c4C3)nc2C(=O)O)cnn1CC12CC3CC(CC(C3)C1)C2` has a drug sensitivity score [1, 3] of 3 DSS, a drug sensitivity score ([1]; co-cultured fibroblast: WI38) of 8.2 DSS and a drug sensitivity score [1, 4] of 3.8 DSS. The drug sensitivity score [2, 3] was 1.6 DSS, the drug sensitivity score ([2]; co-cultured fibroblast: WI38) was 0 DSS and the drug sensitivity score [2, 4] was 1.6 DSS.
For `O=C(O)c1ccc2c(c1)nc(Nc1cccc(Cl)c1)c1ccncc12` [Silmitasertib], the drug sensitivity score [1, 3] was 4.1 DSS, the drug sensitivity score ([1]; co-cultured fibroblast: WI38) was 3.4 DSS and the drug sensitivity score [1, 4] was 0.8 DSS. It also gave a drug sensitivity score [2, 3] of 2 DSS, a drug sensitivity score ([2]; co-cultured fibroblast: WI38) of 0 DSS and a drug sensitivity score [2, 4] of 3 DSS.
`Cc1nc(C(=O)NCC(=O)O)c(O)c2ccc(Oc3ccccc3)cc12` [Roxadustat] gave a drug sensitivity score [1, 3] of 3 DSS, a drug sensitivity score ([1]; co-cultured fibroblast: WI38) of 0 DSS and a drug sensitivity score [1, 4] of 0 DSS. The drug sensitivity score [2, 3] was 0 DSS, the drug sensitivity score ([2]; co-cultured fibroblast: WI38) was 0 DSS and the drug sensitivity score [2, 4] was 0 DSS.
With `CN(C)C[C@@H]1CCn2cc(c3ccccc32)C2=C(C(=O)NC2=O)c2cn(c3ccccc23)CCO1` [Ruboxistaurin] the drug sensitivity score [1, 3] was 8.7 DSS, the drug sensitivity score ([1]; co-cultured fibroblast: WI38) was 6.5 DSS and the drug sensitivity score [1, 4] was 14.9 DSS. It also gave a drug sensitivity score [2, 3] of 5.5 DSS, a drug sensitivity score ([2]; co-cultured fibroblast: WI38) of 3.8 DSS and a drug sensitivity score [2, 4] of 6.9 DSS.
In the case of `Cc1ncc(-c2ccnc(Nc3ccc(S(C)(=O)=O)cc3)n2)n1C(C)C` [AZD-5438], the drug sensitivity score [1, 3] is reported as 17.8 DSS, the drug sensitivity score ([1]; co-cultured fibroblast: WI38) is reported as 22.5 DSS and the drug sensitivity score [1, 4] is reported as 17.7 DSS. It also gave a drug sensitivity score [2, 3] of 19 DSS, a drug sensitivity score ([2]; co-cultured fibroblast: WI38) of 19.2 DSS and a drug sensitivity score [2, 4] of 17.2 DSS.
`N#CC[C@H](C1CCCC1)n1cc(-c2ncnc3[nH]ccc23)cn1` [Ruxolitinib] showed a drug sensitivity score [1, 3] of 0 DSS, a drug sensitivity score ([1]; co-cultured fibroblast: WI38) of 0 DSS and a drug sensitivity score [1, 4] of 0 DSS. The drug sensitivity score [2, 3] was 1.3 DSS, the drug sensitivity score ([2]; co-cultured fibroblast: WI38) was 2.7 DSS and the drug sensitivity score [2, 4] was 2.5 DSS.
With `C[C@@H]1COC(Nc2ccc3ncnc(Nc4ccc(OCc5nccs5)c(Cl)c4)c3c2)=N1` [Varlitinib] the drug sensitivity score [1, 3] was 1.5 DSS, the drug sensitivity score ([1]; co-cultured fibroblast: WI38) was 2.1 DSS and the drug sensitivity score [1, 4] was 0 DSS. The drug sensitivity score [2, 3] was 0 DSS, the drug sensitivity score ([2]; co-cultured fibroblast: WI38) was 2 DSS and the drug sensitivity score [2, 4] was 1.4 DSS.
`CC#CC(=O)N1CCC[C@H]1c1nc(-c2ccc(C(=O)Nc3ccccn3)cc2)c2c(N)nccn12` [Acalabrutinib] gave a drug sensitivity score [1, 3] of 0 DSS, a drug sensitivity score ([1]; co-cultured fibroblast: WI38) of 0 DSS and a drug sensitivity score [1, 4] of 11 DSS. It also gave a drug sensitivity score [2, 3] of 0 DSS, a drug sensitivity score ([2]; co-cultured fibroblast: WI38) of 0 DSS and a drug sensitivity score [2, 4] of 0 DSS.
In the case of `COc1ncc(-c2ccc3nccc(-c4ccnnc4)c3c2)cc1NS(=O)(=O)c1ccc(F)cc1F` [Omipalisib], the drug sensitivity score [1, 3] is reported as 17.1 DSS, the drug sensitivity score ([1]; co-cultured fibroblast: WI38) is reported as 17.9 DSS and the drug sensitivity score [1, 4] is reported as 12.1 DSS. The drug sensitivity score [2, 3] was 8.9 DSS, the drug sensitivity score ([2]; co-cultured fibroblast: WI38) was 6.5 DSS and the drug sensitivity score [2, 4] was 13 DSS.
In the case of `Cc1cc(-c2nc(-c3ccc(OC(F)(F)F)cc3)no2)nn1Cc1ccnc(N2CCN(C3CC3)CC2)c1` [BAY 87-2243], the drug sensitivity score [1, 3] is reported as 7.6 DSS, the drug sensitivity score ([1]; co-cultured fibroblast: WI38) is reported as 0 DSS and the drug sensitivity score [1, 4] is reported as 4.3 DSS. The drug sensitivity score [2, 3] was 31.1 DSS, the drug sensitivity score ([2]; co-cultured fibroblast: WI38) was 0 DSS and the drug sensitivity score [2, 4] was 4.8 DSS.
`CN1CC[C@H](c2c(O)cc(O)c3c(=O)cc(-c4ccccc4Cl)oc23)[C@H](O)C1` [Alvocidib] showed a drug sensitivity score [1, 3] of 19.3 DSS, a drug sensitivity score ([1]; co-cultured fibroblast: WI38) of 20.2 DSS and a drug sensitivity score [1, 4] of 20.9 DSS. The drug sensitivity score [2, 3] was 20.8 DSS, the drug sensitivity score ([2]; co-cultured fibroblast: WI38) was 21.6 DSS and the drug sensitivity score [2, 4] was 21 DSS.
Work on `CCn1c(-c2nonc2N)nc2c(C#CC(C)(C)O)ncc(OC[C@H]3CCCNC3)c21` yielded a drug sensitivity score [1, 3] of 4.3 DSS, a drug sensitivity score ([1]; co-cultured fibroblast: WI38) of 6.1 DSS and a drug sensitivity score [1, 4] of 3.9 DSS. It also gave a drug sensitivity score [2, 3] of 0.2 DSS, a drug sensitivity score ([2]; co-cultured fibroblast: WI38) of 1.1 DSS and a drug sensitivity score [2, 4] of 0.4 DSS.
In the case of `COc1c(C)cnc(Cn2cnc3c(Cl)nc(N)nc32)c1C` [BIIB021], the drug sensitivity score [1, 3] is reported as 13.6 DSS, the drug sensitivity score ([1]; co-cultured fibroblast: WI38) is reported as 21.1 DSS and the drug sensitivity score [1, 4] is reported as 15.6 DSS. The drug sensitivity score [2, 3] was 21.5 DSS, the drug sensitivity score ([2]; co-cultured fibroblast: WI38) was 21.8 DSS and the drug sensitivity score [2, 4] was 24 DSS.
Work on `CC1(C)CCC(CN2CCN(c3ccc(C(=O)NS(=O)(=O)c4ccc(NCC5CCOCC5)c([N+](=O)[O-])c4)c(Oc4cnc5[nH]ccc5c4)c3)CC2)=C(c2ccc(Cl)cc2)C1` [Venetoclax] yielded a drug sensitivity score [1, 3] of 0 DSS, a drug sensitivity score ([1]; co-cultured fibroblast: WI38) of 0 DSS and a drug sensitivity score [1, 4] of 0 DSS. It also gave a drug sensitivity score [2, 3] of 0 DSS, a drug sensitivity score ([2]; co-cultured fibroblast: WI38) of 0 DSS and a drug sensitivity score [2, 4] of 2.3 DSS.
For `O=C(O)C1(C(=O)O)CCC1.[NH2-].[NH2-].[Pt+2]` [Carboplatin], the drug sensitivity score [1, 3] was 13.3 DSS, the drug sensitivity score ([1]; co-cultured fibroblast: WI38) was 18.1 DSS and the drug sensitivity score [1, 4] was 22.9 DSS. The drug sensitivity score [2, 3] was 9.4 DSS, the drug sensitivity score ([2]; co-cultured fibroblast: WI38) was 8.6 DSS and the drug sensitivity score [2, 4] was 12.3 DSS.
`COc1cc2c(NC3CCN(C(C)C)CC3)nc(C3CCCCC3)nc2cc1OCCCN1CCCC1` [UNC0638] showed a drug sensitivity score [1, 3] of 4.4 DSS, a drug sensitivity score ([1]; co-cultured fibroblast: WI38) of 1.8 DSS and a drug sensitivity score [1, 4] of 0 DSS. For the same molecule, the drug sensitivity score [2, 3] was 7.1 DSS, the drug sensitivity score ([2]; co-cultured fibroblast: WI38) was 0 DSS and the drug sensitivity score [2, 4] was 0.1 DSS.
`C[C@]1(O)C[C@@H](c2nc(-c3ccc4ccc(-c5ccccc5)nc4c3)c3c(N)nccn32)C1` [Linsitinib] was tested, and the drug sensitivity score [1, 3] was 0 DSS, the drug sensitivity score ([1]; co-cultured fibroblast: WI38) was 0 DSS and the drug sensitivity score [1, 4] was 0 DSS. For the same molecule, the drug sensitivity score [2, 3] was 0 DSS, the drug sensitivity score ([2]; co-cultured fibroblast: WI38) was 0 DSS and the drug sensitivity score [2, 4] was 1.7 DSS.
